The results in this text go back to PubChem BioAssay AID1259407 (Chemical Carcinogenesis Research Information System (CCRIS), 2018).

For the series, the system named is CCRIS mutagenicity, Ames/micronucleus/aberration tests. The experiment in a line: CCRIS mutagenicity studies.
[1] abbreviates: Test System: AMES SALMONELLA TYPHIMURIUM, Strain/Indicator: TA100, Metabolic Activation: NONE, Method: STANDARD PLATE.
Where [2] appears, read: Test System: AMES SALMONELLA TYPHIMURIUM, Strain/Indicator: TA100, Metabolic Activation: RAT, LIVER, S-9, AROCLOR 1254, Method: STANDARD PLATE.

Structures are written as SMILES. Activity calls are given as the source filed them. No rule for the calls is given here.

Take `OCc1c2ccccc2cc2ccccc12`: the mutagenic call was “active; positive (structural changes) (weak response). precipitation in the culture medi” (End Point: In vitro chromosomal aberrations, Test System: Chinese hamster lung (CHL/IU) cells, Metabolic Activation: Rat, Liver, S9, Phenobarbital and 5,6-benzoflavone); “active; positive” (Test System: AMES SALMONELLA TYPHIMURIUM, Strain/Indicator: TA98, Metabolic Activation: HUMAN, LIVER, CYTOSOL, PAPS, Method: PREINCUBATION); “inactive; negative” (Test System: Ames Salmonella typhimurium, Strain/Indicator: TA98, Metabolic Activation: None, Method: Preincubation); “inactive; negative” (Test System: Ames Salmonella typhimurium, Strain/Indicator: TA98, Metabolic Activation: Rat, Liver, S9, Sodium phenobarbital and 5,6-benzoflavone (10%), Method: Preincubation); “inactive; negative” (Test System: Ames Salmonella typhimurium, Strain/Indicator: TA98, Metabolic Activation: Rat, Liver, S9, Sodium phenobarbital and 5,6-benzoflavone (30%), Method: Preincubation); “inactive; negative” (Test System: Ames Salmonella typhimurium, Strain/Indicator: TA100, Metabolic Activation: None, Method: Preincubation). The mutagenic call is, setting by setting: (Test System: Ames Salmonella typhimurium, Strain/Indicator: TA100, Metabolic Activation: Rat, Liver, S9, Sodium phenobarbital and 5,6-benzoflavone (10%), Method: Preincubation) “inactive; negative”; (Test System: Ames Salmonella typhimurium, Strain/Indicator: TA100, Metabolic Activation: Rat, Liver, S9, Sodium phenobarbital and 5,6-benzoflavone (30%), Method: Preincubation) “active; positive”; (Test System: Ames Salmonella typhimurium, Strain/Indicator: TA1535, Metabolic Activation: None, Method: Preincubation) “inactive; negative”; (Test System: Ames Salmonella typhimurium, Strain/Indicator: TA1535, Metabolic Activation: Rat, Liver, S9, Sodium phenobarbital and 5,6-benzoflavone (10%), Method: Preincubation) “inactive; negative”; (Test System: Ames Salmonella typhimurium, Strain/Indicator: TA1535, Metabolic Activation: Rat, Liver, S9, Sodium phenobarbital and 5,6-benzoflavone (30%), Method: Preincubation) “inactive; negative”; (Test System: Ames Salmonella typhimurium, Strain/Indicator: TA1537, Metabolic Activation: None, Method: Preincubation) “inactive; negative”. Besides, the mutagenic call is “active; positive (weak)” (Test System: Ames Salmonella typhimurium, Strain/Indicator: TA1537, Metabolic Activation: Rat, Liver, S9, Sodium phenobarbital and 5,6-benzoflavone (10%), Method: Preincubation); “inactive; negative” (Test System: Ames Salmonella typhimurium, Strain/Indicator: TA1537, Metabolic Activation: Rat, Liver, S9, Sodium phenobarbital and 5,6-benzoflavone (30%), Method: Preincubation); “inactive; negative” (Test System: E. coli, Strain/Indicator: WP2uvrA/pKM101, Metabolic Activation: Rat, Liver, S9, Sodium phenobarbital and 5,6-benzoflavone (30%), Method: Preincubation).
For the compound `C[C@H](CCC(=O)O)[C@H]1CC[C@H]2[C@@H]3[C@H](O)C[C@@H]4C[C@H](O)CC[C@]4(C)[C@H]3CC[C@]12C`, the mutagenic call is “inactive; negative” under setting [1] and “inactive; negative” under setting [2].
Regarding `CC(=O)C(N=Nc1ccc(-c2ccc(N=NC(C(C)=O)C(=O)Nc3ccccc3)c(Cl)c2)cc1Cl)C(=O)Nc1ccccc1` (stereo not given), the mutagenic call is “inactive; negative” (Test System: AMES SALMONELLA TYPHIMURIUM, Strain/Indicator: TA98, Metabolic Activation: HAMSTER, LIVER, S-9, AROCLOR 1254 (10%), Method: PREINCUBATION); “inactive; negative” (Test System: AMES SALMONELLA TYPHIMURIUM, Strain/Indicator: TA98, Metabolic Activation: NONE, Method: PREINCUBATION); “inactive; negative” (Test System: AMES SALMONELLA TYPHIMURIUM, Strain/Indicator: TA98, Metabolic Activation: RAT, LIVER, S-9, AROCLOR 1254 (10%), Method: PREINCUBATION); “inactive; negative” (Test System: AMES SALMONELLA TYPHIMURIUM, Strain/Indicator: TA100, Metabolic Activation: HAMSTER, LIVER, S-9, AROCLOR 1254 (10%), Method: PREINCUBATION); “inactive; negative” (Test System: AMES SALMONELLA TYPHIMURIUM, Strain/Indicator: TA100, Metabolic Activation: NONE, Method: PREINCUBATION); “inactive; negative” (Test System: AMES SALMONELLA TYPHIMURIUM, Strain/Indicator: TA100, Metabolic Activation: RAT, LIVER, S-9, AROCLOR 1254 (10%), Method: PREINCUBATION). The mutagenic call by setting is: (Test System: AMES SALMONELLA TYPHIMURIUM, Strain/Indicator: TA1535, Metabolic Activation: HAMSTER, LIVER, S-9, AROCLOR 1254 (10%), Method: PREINCUBATION) “inactive; negative”; (Test System: AMES SALMONELLA TYPHIMURIUM, Strain/Indicator: TA1535, Metabolic Activation: NONE, Method: PREINCUBATION) “inactive; negative”; (Test System: AMES SALMONELLA TYPHIMURIUM, Strain/Indicator: TA1535, Metabolic Activation: RAT, LIVER, S-9, AROCLOR 1254 (10%), Method: PREINCUBATION) “inactive; negative”; (Test System: AMES SALMONELLA TYPHIMURIUM, Strain/Indicator: TA1537, Metabolic Activation: HAMSTER, LIVER, S-9, AROCLOR 1254 (10%), Method: PREINCUBATION) “inactive; negative”; (Test System: AMES SALMONELLA TYPHIMURIUM, Strain/Indicator: TA1537, Metabolic Activation: NONE, Method: PREINCUBATION) “inactive; negative”; (Test System: AMES SALMONELLA TYPHIMURIUM, Strain/Indicator: TA1537, Metabolic Activation: RAT, LIVER, S-9, AROCLOR 1254 (10%), Method: PREINCUBATION) “inactive; negative”. In addition, the mutagenic call (Test System: AMES SALMONELLA TYPHIMURIUM, Strain/Indicator: TA1538, Metabolic Activation: RAT, LIVER, S-9, AROCLOR 1254, Method: STANDARD PLATE) was “inactive; negative”.
With `C[C@]12CC[C@@H]3c4ccc(OC(=O)c5ccccc5)cc4CC[C@H]3[C@@H]1CC[C@@H]2O`, the mutagenic call (End Point: IN VIVO MICRONUCLEUS, Test System: BONE MARROW POLYCHROMATIC ERYTHROCYTES, Species: RAT, Strain/Sex: ALDERLEY PARK (AP)/FEMALE, Route: SUBCUTANEOUS (TEST MATERIAL SOLVENT: OIL)) is “inactive; negative”.
For the compound `C=C(C)c1ccc(C)c2ccc(C=O)c-2c1`, the mutagenic call by setting is: (Test System: AMES SALMONELLA TYPHIMURIUM, Strain/Indicator: TA98, Metabolic Activation: NONE, Method: STANDARD PLATE) “inactive; negative”; (Test System: AMES SALMONELLA TYPHIMURIUM, Strain/Indicator: TA98, Metabolic Activation: RAT, LIVER, S-9, AROCLOR 1254, Method: STANDARD PLATE) “active; positive”; under setting [1], “inactive; negative”; under setting [2], “active; positive”.
